Data taken from patent US20080200551A1, “Flourene Derivative” (priority 2004, published 2008).
Structures can show the parent of a compound that is named as a salt.

Assays:
human 5-HT7 receptor = human 5-HT7 receptor (Homo sapiens, UniProt P34969); experiment: Binding test of 5-HT7 receptor; details: [3H]5-HT, human 5-HT7 expressing CHO cell membrane
Experimental: (2) Binding Test of 5-HT7 Receptor
(i) Preparation of Membrane Preparation
CHO cell was used as the gene transferring cell.
Cultured CHO cells expressing human 5-HT7 receptor were washed with PBS (−). The cells were scraped in the presence of PBS(−), and the cells were recovered by centrifugation (1,000 rpm, 10 min, 4° C.). They were homogenized using Polytron (PTA 10-TS) in the presence of 5 mM Tris-HCl (pH 7.4) buffer and centrifuged (40,000×g, 10 min, 4° C.). They were suspended using a homogenizer in the presence of 50 mM Tris-HCl (pH 7.4) buffer. They were subjected to centrifugation (40,000×g, 10 min, 4° C.), suspended in 50 mM Tris-HCl (pH 7.4) and stored at −80° C.
(ii) Receptor Binding Test
The compound was dissolved in 100% DMSO and diluted to respective concentrations. Nonspecific binding was defined as the binding quantity in the presence of 10 μM metergoline, and the result of subtracting the nonspecific binding quantity from the total binding quantity was defined as the specific binding quantity. This was mixed with 4 ml of 50 mM Tris-HCl buffer (pH 7.4) and filtered under a reduced pressure using a GF/B glass filter, and the filter was washed (4 ml×3) with the same buffer. The glass filter was soaked in 5 ml of a liquid scintillator (Aquasol-2) and the radioactivity was measured using a liquid scintillation counter.

[1] = tested on: protein leaked from the dural blood vessel caused by 5-HT; experiment: Preventive effect in guinea pig migraine model (leaked protein); format: in vivo; details: for leakage of the protein: 10 mg/kg or 30 mg/kg of oral administration
Experimental: (4) Preventive Effect in Guinea Pig Migraine Model
In this test system, migraine preventive effect was evaluated by measuring this leaked protein in the presence of a compound to be tested, and this was carried out by partially modifying the method described in Rachel A. Spokes and Vicki C. Middlefell, European Journal of Pharmacology (1995) 281, 75-79.
Hartley male guinea pig (250-350 g) was anesthetized by peritoneal administration (i.p.) of urethane (1.5 g/kg). By applying simple canulation to a saphena, 50 mg/kg of a fluorescent protein (FITC-BSA) was intravenously administered (i.v.) and 5 minutes thereafter, physiological saline or 1 μM of 5-HT was intravenously administered. By carrying out perfusion with physiological saline 15 minutes thereafter, blood was washed out. […] By detaching the skull, dura mater was took out and incubated at 37° C. for 16 hours in an Eppendorf tube in the presence of physiological saline of pH 11. Centrifugation was carried out, and the supernatant was dispensed into a plate. Fluorescence intensity was measured using a fluorescence plate reader (excitation wavelength 485 nm, […] 530 nm). By measuring dura mater weight, fluorescence intensity per mg dural protein was calculated.
Values of the fluorescence intensity measured at the time of the administration of each compound and at the time of no administration are shown in FIG. 1 to FIG. 4. […] The control indicates fluorescence intensity at the time of no addition of 5-HT, namely the reference value.

5-HT6 receptor = 5-HT6 receptor (UniProt P50406); experiment: Affinity for other receptors: 5-HT6; format: binding
α1 receptor = experiment: Affinity for other receptors: α1; format: binding
5-HT4 receptor = 5-HT4 receptor (UniProt O70528); experiment: Affinity for other receptors: 5-HT4; format: binding
5-HT2B receptor = details: against 5-HT1A, 5-HT1B, 5-HT2A, 5-HT2C, 5-HT3, 5-HT6, 5-HT7, α1, M1 and D2 receptors; cited from earlier work

Chain of human 5-HT7 receptor (P34969 1-432 limits assumed): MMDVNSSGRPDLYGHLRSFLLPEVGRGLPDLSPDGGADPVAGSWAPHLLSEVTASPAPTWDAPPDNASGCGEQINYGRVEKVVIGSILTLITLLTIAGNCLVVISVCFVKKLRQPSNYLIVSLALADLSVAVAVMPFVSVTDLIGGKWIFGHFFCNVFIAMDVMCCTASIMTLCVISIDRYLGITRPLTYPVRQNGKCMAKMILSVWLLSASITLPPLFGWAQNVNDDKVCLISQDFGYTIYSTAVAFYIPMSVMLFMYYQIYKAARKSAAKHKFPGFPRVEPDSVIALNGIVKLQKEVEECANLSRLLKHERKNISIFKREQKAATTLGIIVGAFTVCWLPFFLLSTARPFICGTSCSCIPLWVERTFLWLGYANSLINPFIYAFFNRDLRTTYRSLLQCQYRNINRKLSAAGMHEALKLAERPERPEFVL

Row | SMILES | Ki (human 5-HT7 receptor) [nM] | leakage of the protein [1] | also measured
1 | CC1(O)c2ccccc2-c2ccc(C(=O)N=C(N)N)cc21 (racemic) [Example 56, N-(diaminomethylene)-9-hydroxy-9-methyl-9H-fluorene-2-carboxamide] | 0.4 to 310 |  | 
2 | CC1(O)c2cc(C(=O)N=C(N)N)ccc2-c2c(F)cccc21 (racemic) [Example 77, N-(diaminomethylene)-5-fluoro-9-hydroxy-9-methyl-9H-fluorene-2-carboxamide] | 0.4 to 310 |  | 
3 | NC(N)=NC(=O)c1ccc2c(c1)C1(CCCO1)c1ccccc1-2 (single isomer, unassigned) [Example 60a, N-(diaminomethylene)-4′,5′-dihydro-3′H-spiro[fluorene-9,2′-furan]-2-carboxamide (optically active substance A)] |  | almost completely suppressed leakage of the protein | 
4 | NC(N)=NC(=O)c1ccc2c(c1)C1(CCCO1)c1ccccc1-2 (single isomer, unassigned) [Example 60b, N-(diaminomethylene)-4′,5′-dihydro-3′H-spiro[fluorene-9,2′-furan]-2-carboxamide (optically active substance B)] |  | almost completely suppressed leakage of the protein | 
5 | CC1(O)c2cc(C(=O)N=C(N)N)ccc2-c2c(F)cccc21 (single isomer, unassigned) [Example 78b, N-(diaminomethylene)-5-fluoro-9-hydroxy-9-methyl-9H-fluorene-2-carboxamide (optically active substance B)] |  | almost completely suppressed leakage of the protein | 
6 | Cl.NC(N)=NC(=O)c1ccc2c(c1)C(O)c1ccccc1-2 (stereo not shown) [Example 3, N-(diaminomethylene)-9-hydroxy-9H-fluorene-2-carboxamide hydrochloride] |  |  | IC50 (5-HT6 receptor): ≥ 1000 nM; IC50 (α1 receptor): ≥ 1000 nM; amount of the leaked protein ([1]; 3 mg/kg of intraperitoneal administration, FIG. 4): almost completely suppressed the amount of leaked protein; IC50 (5-HT4 receptor): ≥ 1000 nM
7 | CC(C)C1NC(=NC(=O)c2ccc3c(c2)C(O)c2ccccc2-3)NC1=O [Example 8, 9-hydroxy-N-[(2EZ,4S)-4-isopropyl-5-oxoimidazolin-2-ylidene-9H-fluorene-2-carboxamide hydrochloride] | 0.4 to 310 |  | 
8 | NC(N)=NC(=O)c1ccc2c(c1)C(O)c1c(Cl)cccc1-2 (stereo not shown) [Example 38, 8-chloro-N-(diaminomethylene)-9-hydroxy-9H-fluorene-2-carboxamide] | 0.4 to 310 |  | 
9 | NC(N)=NC(=O)c1ccc2c(c1)C1(SCCS1)c1ccccc1-2 [Example 59] |  | almost completely suppressed leakage of the protein | 
10 | NC(N)=NC(=O)c1ccc2c(c1)C1(CC1)c1ccccc1-2 [Example 63, N-(diaminomethylene)spiro[cyclopropane-1,9′-fluorene]-2′-carboxamide] | 0.4 to 310 |  | 
11 | COC1(C)c2ccccc2-c2ccc(C(=O)N=C(N)N)cc21 (stereo not shown) [Example 71, N-(diaminomethylene)-9-methoxy-9-methyl-9H-fluorene-2-carboxamide] | 0.4 to 310 |  | 
12 | CCC1(OC)c2ccccc2-c2ccc(C(=O)N=C(N)N)cc21 (stereo not shown) [Example 72, N-(diaminomethylene)-9-ethyl-9-methoxy-9H-fluorene-2-carboxamide] | 0.4 to 310 |  | 
13 | NC(N)=NC(=O)c1ccc2c(c1)C1(SCCS1)c1cccc(F)c1-2 [Example 85] |  | almost completely suppressed leakage of the protein | 
14 | COC1(C)c2cc(C(=O)N=C(N)N)ccc2-c2c(F)cccc21 (stereo not shown) [Example 87, N-(diaminomethylene)-5-fluoro-9-methoxy-9-methyl-9H-fluorene-2-carboxamide] | 0.4 to 310 |  | 
15 | CC(C)c1cc(-c2ccc(F)c3ccccc23)nc(N)n1 [RS-127445, 2-amino-4-(4-fluoronaphth-1-yl)-6-isopropylpyrimidine, reference compound] |  |  | 5-HT2B receptor selectivity (5-HT2B receptor): 1000 times; amount of the leaked protein ([1]; 3 mg/kg, intraperitoneal, FIG. 1): showed an effect to reduce amount of the leaked protein; amount of the leaked protein versus reference value ([1]; dose increased from 3 mg/kg to 10 mg/kg, intraperitoneal, FIG. 1): did not reduced to the reference value
16 | CC1CCN(CC[C@H]2CCCN2S(=O)(=O)c2cccc(O)c2)CC1 [SB-269970, (R)-3-(2-(2-(4-methylpiperidin-1-yl)ethyl)pyrrolidine-1-sulfonyl)phenol, reference compound] |  |  | amount of the leaked protein versus reference value ([1]; dose increased from 3 mg/kg to 30 mg/kg, intraperitoneal, FIG. 2): did not reduced the amount of leaked protein to the reference value; amount of the leaked protein ([1]; from 10 mg/kg, intraperitoneal, FIG. 2): showed the effect

Further lines, with some results ahead:

Row | Ki (human 5-HT7 receptor) [nM] | SMILES | leakage of the protein [1] | also measured
17 | 0.4 to 310 | CC1(O)c2ccccc2-c2ccc(C(=O)N=C(N)N)cc21 (single isomer, unassigned) [Example 56a, N-(diaminomethylene)-9-hydroxy-9-methyl-9H-fluorene-2-carboxamide (optically active substance A)] | almost completely suppressed leakage of the protein | 
18 | 0.4 to 310 | CC1(O)c2cc(C(=O)N=C(N)N)ccc2-c2c(F)cccc21 (single isomer, unassigned) [Example 78a, N-(diaminomethylene)-5-fluoro-9-hydroxy-9-methyl-9H-fluorene-2-carboxamide (optically active substance A)] |  | 
